Key:
Format in all cases: in vivo
Matricaria inodora [1] = assay: Pre-emergence herbicidal action against MATIN; conditions: visual score after 3 weeks vs untreated controls
Method in brief: (§1)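 Herbicidal effect was assessed 3 weeks after treatment by visual comparison with untreated controls, 100% denoting dead plants. Aqueous WP or EC preparations had been applied at 600 to 800 l/ha with 0.2% wetting agent to the soil covering freshly sown seeds.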

Viola tricolor [2] = assay: Post-emergence herbicidal action against VIOTR
Method in brief: (§2)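 Herbicidal effect was scored visually in percent after about 3 weeks in the greenhouse. Plants had been raised in sandy loam and treated post-emergence at the one-leaf stage with formulated compound at 600 to 800 l/ha water plus 0.2% wetting agent.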

Amaranthus retroflexus [3] = assay: Pre-emergence herbicidal action against AMARE; conditions: visual score after 3 weeks vs untreated controls
Method in brief: as §1

Avena fatua [4] = assay: Pre-emergence herbicidal action against AVEFA; conditions: visual score after 3 weeks vs untreated controls
Method in brief: as §1

Lolium rigidum = assay: Pre-emergence herbicidal action against LOLRI
Method in brief: as §1

Viola tricolor [5] = assay: Pre-emergence herbicidal action against VIOTR
Method in brief: as §1

Abutilon theophrasti [6] = assay: Post-emergence herbicidal action against ABUTH
Method in brief: as §2

Veronica persica [7] = assay: Post-emergence herbicidal action against VERPE; conditions: visual assessment about 3 weeks after treatment
Method in brief: as §2

Setaria viridis [8] = assay: Post-emergence herbicidal action against SETVI; conditions: visual assessment about 3 weeks after treatment
Method in brief: as §2

Veronica persica [9] = assay: Pre-emergence herbicidal action against VERPE
Method in brief: as §1

Digitaria sanguinalis = assay: Post-emergence herbicidal action against DIGSA
Method in brief: as §2

Polygonum convolvulus = assay: Pre-emergence herbicidal action against POLCO; conditions: 80 g/ha
Method in brief: as §1

Alopecurus myosuroides [10] = assay: Pre-emergence herbicidal action against ALOMY; conditions: visual score after 3 weeks vs untreated controls
Method in brief: as §1

Pharbitis purpurea [11] = assay: Post-emergence herbicidal action against PHBPU; conditions: visual assessment about 3 weeks after treatment
Method in brief: as §2

Abutilon theophrasti [12] = assay: Pre-emergence herbicidal action against ABUTH; conditions: visual score after 3 weeks vs untreated controls
Method in brief: as §1

Echinochloa crus-galli [13] = assay: Pre-emergence herbicidal action against ECHCG; conditions: visual score after 3 weeks vs untreated controls
Method in brief: as §1

Avena fatua [14] = assay: Post-emergence herbicidal action against AVEFA; conditions: visual assessment about 3 weeks after treatment
Method in brief: as §2

Alopecurus myosuroides [15] = assay: Post-emergence herbicidal action against ALOMY
Method in brief: as §2

Pharbitis purpurea [16] = assay: Pre-emergence herbicidal action against PHBPU; conditions: visual score after 3 weeks vs untreated controls
Method in brief: as §1

Matricaria inodora [17] = assay: Post-emergence herbicidal action against MATIN; conditions: visual assessment about 3 weeks after treatment
Method in brief: as §2

Amaranthus retroflexus [18] = assay: Post-emergence herbicidal action against AMARE; conditions: visual assessment about 3 weeks after treatment
Method in brief: as §2

Setaria viridis [19] = assay: Pre-emergence herbicidal action against SETVI
Method in brief: as §1

Stellaria media [20] = assay: Post-emergence herbicidal action against STEME; conditions: visual assessment about 3 weeks after treatment
Experimental: Seeds of monocotyledonous and dicotyledonous weed and crop plants are laid out in sandy loam soil in wood-fiber pots, covered with soil and cultivated in a greenhouse under good growth conditions. 2 to 3 weeks after sowing, the test plants are treated at the one-leaf stage. The compounds of the invention, formulated in the form of wettable powders (WP) or as emulsion concentrates (EC), are then sprayed onto the green parts of the plants in the form of an aqueous suspension or emulsion at a water application rate equivalent to 600 to 800 l/ha, with addition of 0.2% wetting agent. After the test plants have been left to stand in the greenhouse under optimal growth conditions for about 3 weeks, the action of the preparations is assessed visually in comparison to untreated controls (herbicidal action in percent (%): 100% activity=the plants have died, 0% activity=like control plants). […] The tables below illustrate, in an illustrative manner, the post-emergence herbicidal action of the compounds of the invention, the herbicidal activity being stated in percent.

Stellaria media [21] = assay: Pre-emergence herbicidal action against STEME
From the text: (§3) Seeds of monocotyledonous and dicotyledonous weed plants and crop plants are laid out in sandy loam soil in wood-fiber pots and covered with soil. The compounds of the invention, formulated in the form of wettable powders (WP) or as emulsion concentrates (EC), are then applied to the surface of the covering soil in the form of an aqueous suspension or emulsion at a water application rate equivalent to 600 to 800 l/ha, with addition of 0.2% wetting agent. After the treatment, the pots are placed in a greenhouse and kept under good growth conditions for the trial plants. The damage to the test plants is scored visually after a test period of 3 weeks by comparison with untreated controls (herbicidal activity in percent (%): 100% activity=the plants have died, 0% activity=like control plants). […] The tables below illustrate, in an illustrative manner, the post-emergence herbicidal action of the compounds of the invention, the herbicidal activity being stated in percent.

Cyperus esculentus = assay: Pre-emergence herbicidal action against CYPES; conditions: visual score after 3 weeks vs untreated controls
From the text: as §3

Echinochloa crus-galli [22] = assay: Post-emergence herbicidal action against ECHCG; conditions: visual assessment about 3 weeks after treatment
Method in brief: as §2

## CCN(CC)C(=O)c1c(C(F)F)ccc(C(=O)Nc2nnnn2C)c1Cl [Example 1-166]
Matricaria inodora [1]; 20 g/ha
  Pre-emergence action against MATIN: 90%
Matricaria inodora [1]; 80 g/ha
  Pre-emergence action against MATIN: 90%
Viola tricolor [2]; 20 g/ha
  Post-emergence action against VIOTR in %: 80%
Amaranthus retroflexus [3]; 20 g/ha
  Pre-emergence action against AMARE: 100%
Amaranthus retroflexus [3]; 80 g/ha
  Pre-emergence action against AMARE: 100%
Avena fatua [4]; 80 g/ha
  Pre-emergence action against AVEFA: 90%
Lolium rigidum; 80 g/ha
  Pre-emergence action against LOLRI: 80%
Viola tricolor [5]; 80 g/ha
  Pre-emergence action against VIOTR: 100%
Abutilon theophrasti [6]; 5 g/ha
  Post-emergence action against ABUTH: 80%
Abutilon theophrasti [6]; 20 g/ha
  Post-emergence action against ABUTH: 90%
Veronica persica [7]; 20 g/ha
  Post-emergence action against VERPE in %: 80%
Setaria viridis [8]; 5 g/ha
  Post-emergence action against SETVI in %: 80%
Setaria viridis [8]; 20 g/ha
  Post-emergence action against SETVI in %: 100%
Veronica persica [9]; 80 g/ha
  Pre-emergence action against VERPE: 100%
Digitaria sanguinalis; 5 g/ha
  Post-emergence action against DIGSA in %: 90%
Digitaria sanguinalis; 20 g/ha
  Post-emergence action against DIGSA in %: 90%
Polygonum convolvulus
  Pre-emergence action against POLCO: 80%
Alopecurus myosuroides [10]; 80 g/ha
  Pre-emergence action against ALOMY: 90%
Pharbitis purpurea [11]; 5 g/ha
  Post-emergence action against PHBPU in %: 90%
Pharbitis purpurea [11]; 20 g/ha
  Post-emergence action against PHBPU in %: 90%
Abutilon theophrasti [12]; 20 g/ha
  Pre-emergence action against ABUTH: 100%
Abutilon theophrasti [12]; 80 g/ha
  Pre-emergence action against ABUTH: 100%
Echinochloa crus-galli [13]; 80 g/ha
  Pre-emergence action against ECHCG: 100%
Avena fatua [14]; 20 g/ha
  Post-emergence action against AVEFA in %: 80%
Alopecurus myosuroides [15]; 5 g/ha
  Post-emergence action against ALOMY: 80%
Alopecurus myosuroides [15]; 20 g/ha
  Post-emergence action against ALOMY: 80%
Pharbitis purpurea [16]; 80 g/ha
  Pre-emergence action against PHBPU: 90%
Matricaria inodora [17]; 5 g/ha
  Post-emergence action against MATIN in %: 80%
Matricaria inodora [17]; 20 g/ha
  Post-emergence action against MATIN in %: 90%
Amaranthus retroflexus [18]; 5 g/ha
  Post-emergence action against AMARE in %: 100%
Amaranthus retroflexus [18]; 20 g/ha
  Post-emergence action against AMARE in %: 100%
Setaria viridis [19]; 80 g/ha
  Pre-emergence action against SETVI: 100%

## CCCn1nnnc1NC(=O)c1ccc(C(F)(F)F)c(C(=O)N(C)CC2CC2)c1Cl [Example 3-126]
Matricaria inodora [1]; 80 g/ha
  Pre-emergence action against MATIN: 90%
Matricaria inodora [1]; 320 g/ha
  Pre-emergence action against MATIN: 100%
Viola tricolor [2]; 5 g/ha
  Post-emergence action against VIOTR in %: 80%
Viola tricolor [2]; 20 g/ha
  Post-emergence action against VIOTR in %: 90%
Viola tricolor [2]; 80 g/ha
  Post-emergence action against VIOTR in %: 100%
Amaranthus retroflexus [3]; 20 g/ha
  Pre-emergence action against AMARE: 90%
Amaranthus retroflexus [3]; 80 g/ha
  Pre-emergence action against AMARE: 100%
Amaranthus retroflexus [3]; 320 g/ha
  Pre-emergence action against AMARE: 100%
Avena fatua [4]; 320 g/ha
  Pre-emergence action against AVEFA: 100%
Stellaria media [20]; 5 g/ha
  Post-emergence action against STEME in %: 100%
Stellaria media [20]; 20 g/ha
  Post-emergence action against STEME in %: 100%
Stellaria media [20]; 80 g/ha
  Post-emergence action against STEME in %: 100%
Lolium rigidum; 320 g/ha
  Pre-emergence action against LOLRI: 80%
Viola tricolor [5]; 80 g/ha
  Pre-emergence action against VIOTR: 90%
Viola tricolor [5]; 320 g/ha
  Pre-emergence action against VIOTR: 100%
Abutilon theophrasti [6]; 5 g/ha
  Post-emergence action against ABUTH: 100%
Abutilon theophrasti [6]; 20 g/ha
  Post-emergence action against ABUTH: 100%
Abutilon theophrasti [6]; 80 g/ha
  Post-emergence action against ABUTH: 100%
Veronica persica [7]; 80 g/ha
  Post-emergence action against VERPE in %: 90%
Setaria viridis [8]; 20 g/ha
  Post-emergence action against SETVI in %: 80%
Setaria viridis [8]; 80 g/ha
  Post-emergence action against SETVI in %: 100%
Veronica persica [9]; 320 g/ha
  Pre-emergence action against VERPE: 90%
Stellaria media [21]; 20 g/ha
  Pre-emergence action against STEME: 80%
Stellaria media [21]; 80 g/ha
  Pre-emergence action against STEME: 80%
Stellaria media [21]; 320 g/ha
  Pre-emergence action against STEME: 100%
Alopecurus myosuroides [10]; 320 g/ha
  Pre-emergence action against ALOMY: 90%
Pharbitis purpurea [11]; 20 g/ha
  Post-emergence action against PHBPU in %: 90%
Pharbitis purpurea [11]; 80 g/ha
  Post-emergence action against PHBPU in %: 100%
Cyperus esculentus; 80 g/ha
  Pre-emergence action against CYPES: 100%
Cyperus esculentus; 320 g/ha
  Pre-emergence action against CYPES: 100%
Abutilon theophrasti [12]; 20 g/ha
  Pre-emergence action against ABUTH: 100%
Abutilon theophrasti [12]; 80 g/ha
  Pre-emergence action against ABUTH: 100%
Abutilon theophrasti [12]; Dosage column 320 g/ha (heading prints 3200 g/ha)
  Pre-emergence action against ABUTH: 100%
Echinochloa crus-galli [13]; 320 g/ha
  Pre-emergence action against ECHCG: 80%
Echinochloa crus-galli [22]; 5 g/ha
  Post-emergence action against ECHCG in %: 90%
Echinochloa crus-galli [22]; 20 g/ha
  Post-emergence action against ECHCG in %: 100%
Echinochloa crus-galli [22]; 80 g/ha
  Post-emergence action against ECHCG in %: 100%
Avena fatua [14]; 20 g/ha
  Post-emergence action against AVEFA in %: 90%
Avena fatua [14]; 80 g/ha
  Post-emergence action against AVEFA in %: 100%
Alopecurus myosuroides [15]; 80 g/ha
  Post-emergence action against ALOMY: 80%
Pharbitis purpurea [16]; 320 g/ha
  Pre-emergence action against PHBPU: 80%
Matricaria inodora [17]; 5 g/ha
  Post-emergence action against MATIN in %: 80%
Matricaria inodora [17]; 20 g/ha
  Post-emergence action against MATIN in %: 90%
Matricaria inodora [17]; 80 g/ha
  Post-emergence action against MATIN in %: 100%
Amaranthus retroflexus [18]; 5 g/ha
  Post-emergence action against AMARE in %: 100%
Amaranthus retroflexus [18]; 20 g/ha
  Post-emergence action against AMARE in %: 100%
Amaranthus retroflexus [18]; 80 g/ha
  Post-emergence action against AMARE in %: 100%
Setaria viridis [19]; 80 g/ha
  Pre-emergence action against SETVI: 80%
Setaria viridis [19]; 320 g/ha
  Pre-emergence action against SETVI: 100%

— patent US12599136B2, “Substituted isophthalic acid diamides and their use as herbicides” (Bayer Aktiengesellschaft, priority 2020, dated 2026)
